Activity calls are given as the source filed them. The rule behind the calls is not given here.
How the values were obtained:
[1] = system: HUVEC; test: Cytotoxicity against HUVEC assessed as change in cell number at 25 uM after 72 hrs by trypan blue dye exclusion test; assay type: functional, cell-based; conditions: Homo sapiens
[2] = system: HUVEC; test: Cytotoxicity against HUVEC at 0.35 uM after 72 hrs by trypan blue dye exclusion test relative to control; assay type: functional, Homo sapiens
[3] = system: HUVEC; test: Angiogenic activity against HUVEC assessed as organization of cells in a capillary like structure at 0.1 uM after 4 hrs; assay type: functional, cell-based; conditions: Homo sapiens
[4] = system: HUVEC; test: Induction of apoptosis in HUVEC assessed as cytochrome C release at 5 uM after 24 hrs by Western blot analysis; assay type: functional, cell-based; conditions: Homo sapiens
[5] = system: HUVEC; test: Induction of apoptosis in HUVEC assessed as procaspase3 activation at 0.25 uM after 4 hrs by Western blot analysis; assay type: functional, cell-based; conditions: Homo sapiens
[6] = system: HUVEC; test: Induction of apoptosis in HUVEC assessed as down-regulation of Bcl2 protein level at 5 uM after 0.5 hr by Western blot analysis; assay type: functional, cell-based; conditions: Homo sapiens
[7] = system: HUVEC; test: Induction of apoptosis in HUVEC assessed as effect on bax protein level after 1 hr by Western blot analysis; assay type: functional, cell-based; conditions: Homo sapiens
[8] = system: HUVEC; test: Induction of apoptosis in HUVEC assessed as procaspase3 activation at 5 uM after 4 hrs by Western blot analysis; assay type: functional, cell-based; conditions: Homo sapiens
[9] = system: HUVEC; test: Angiogenic activity against HUVEC assessed as organization of cells in a capillary like structure at 0.25 uM after 4 hrs; assay type: functional, cell-based; conditions: Homo sapiens
[10] = system: HUVEC; test: Antiangiogenic activity in HUVEC assessed as decrease in cell migration at 0.25 uM after 4 hrs in the presence of FGF2 relative to control; assay type: functional, cell-based; conditions: Homo sapiens
[11] = system: HUVEC; test: Cytotoxicity against HUVEC at 0.5 uM after 72 hrs by trypan blue dye exclusion test relative to control; assay type: functional, Homo sapiens
[12] = system: HUVEC; test: Cytotoxicity against HUVEC at 0.25 uM after 72 hrs by trypan blue dye exclusion test relative to control; assay type: functional, Homo sapiens
[13] = system: HUVEC; test: Cytotoxicity against HUVEC at 5 uM after 6 hrs by Trypan blue dye exclusion test; assay type: functional, Homo sapiens
[14] = system: HUVEC; test: Antiangiogenic activity against HUVEC assessed as inhibition of capillary tube organization at 0.5 uM after 4 hrs; assay type: functional, cell-based; conditions: Homo sapiens
[15] = system: HUVEC; test: Cytotoxicity against HUVEC at 0.15 uM after 72 hrs by trypan blue dye exclusion test relative to control; assay type: functional, Homo sapiens
[16] = system: HUVEC; test: Induction of apoptosis in HUVEC assessed as cytochrome C release at 5 uM after 4 hrs by Western blot analysis; assay type: functional, cell-based; conditions: Homo sapiens
[17] = system: HUVEC; test: Induction of apoptosis in HUVEC assessed as procaspase3 activation at 5 uM after 24 hrs by Western blot analysis; assay type: functional, cell-based; conditions: Homo sapiens

CC(C)=CCC[C@](C)(O)[C@@H]1CC=C(C)CC1 [LEVOMENOL]
Activity [1]: inactive
Activity [2]: 82%
Activity [3]: Active
Activity [4]: Active
Activity [5]: inactive
Activity [6]: Active
Activity [7]: inactive
Activity [8]: Active
Activity [9]: Active
Activity [10]: Active
Activity [11]: 90%
Activity [12]: 78%
Activity [13]: >60%
Activity [14]: Active
Activity [15]: 65%
Activity [16]: Active
Activity [17]: Active

From ChEMBL document CHEMBL1157109, “Differentiating and apoptotic dose-dependent effects in (-)-alpha-bisabolol-treated human endothelial cells” (2010)
